Laboratory results taken from patent publication EP0160115A1, “Growth stimulating food additive for animals” (SPOFA Spojené Podniky Pro Zdravotnickou Vyrobu, priority 1984, dated 1985).

Legend:
[1] = Weight gain of pre-fattening pigs on supplemented feed in a herd with bloody diarrhoea (14 days); assay type: in vivo, Vormastschweine; conditions: 100 ppm of each active in feed; for Gesamtzuwachs x̄ (kg): control 8,95; for Endgewicht x̄ (kg): control 59,43; for Tageszuwachs: control 639; for Zuwachsindex (%): control = 100
Source text: Die Versuche wurden in einem Schweinemastbetrieb durchgeführt, bei dem ständig bei 5 bis 15 der Vormastschweine (Rasse BU x PC + L) von etwa 50 kg Gewicht, die in Koben zu 10 bis 15 Tieren untergebracht waren, blutige Durchfälle auftraten. Histologisch und mikrobiologisch wurde als Erreger der Durchfallerkrankung Vibrio coli festgestellt.
(§1) Die Versuchstiere wurden in 4 Gruppen aufgeteilt und während der gesamten Versuchsdauer von 14 Tagen mit dem Vormastschweine-Futtergemisch SOL unter folgender Wirkstoffzugabe behandelt: • Gruppe I (Kontrollgruppe): Futtergemisch allein Gruppe II: Phthalazol, 100 ppm • Gruppe III: Cyadox, 100 ppm • Gruppe IV: Cyadox und Phthalazol, je 100 ppm.

Vibrio coli = assay: Treatment of bloody diarrhoea in pre-fattening pigs via supplemented feed (14 days); assay type: in vivo, Vormastschweine
Source text: Die Versuche wurden in einem Schweinemastbetrieb durchgeführt, bei dem ständig bei 5 bis 15 der Vormastschweine (Rasse BU x PC + L) von etwa 50 kg Gewicht, die in Koben zu 10 bis 15 Tieren untergebracht waren, blutige Durchfälle auftraten.
as §1

[2] = Fattening trial in early-weaned piglets with supplemented feed (4 weeks); assay type: in vivo, Ferkel; conditions: 28 days; for Zuwachsindex (%): 100 ppm of each active in feed; for Zuwachsindex (%) / Ausnutzungsindex (%): control = 100,0; for Ausnutzungsindex (%), difference from control (in brackets) / Ausnutzungsindex (%) / Futtermittel-Ausnutzung, x̄: 100 ppm of each active; for Futtermittel-Ausnutzung, x̄: feed consumption per unit of gain, control 2,0
Source text: Frühabgesetzte Ferkel (Mischlinge des weißen edlen Landschweinsx Landrasse), die innerhalb einer Zeitspanne von 6 Tagen geboren waren, wurden aus der Gebärstation am S. Tage nach dem Absetzen in die Versuchsanlage gebracht. Die Ferkel wurden in Gruppen von je 8 bis 12 Tieren in Boxen untergebracht, die mit Rostböden versehen und durch hölzerne Bodenplatten beheizt waren. Nach 7 Tagen Anpassungszeit wurde der eigentliche Mastversuch begonnen. Über die gesamte Versuchsdauer von 4 Wochen wurde in allen Gruppen das Futtergemishc ? OS 2 für früh abgesetzte Ferkel verfüttert, das durch Zusatz der entsprechenden Prämixe jeweils mit folgenden Wirkstoffen angereichert wurde: • Gruppe I (Kontrollgruppe): Futtergemisch allein ohne Zusatz • Gruppe II: Cyadox, 100 ppm (100 mg pro kg Futtergemisch) • Gruppe III: Roh-Tylo-sin, 100 ppm reine Tylosinbase • Gruppe IV : Cyadox und Roh-Tylosin, je 100 ppm.
Zu Beginn des Versuchs und am Versuchsende (28. Tag) wurden die Tiere individuell gewogen. Der Futterverbrauch pro Gruppe wurde täglich ermittelt und daraus die Futtermittelausnutzung, dh der Futterverbrauch pro Zuwachseinheit, berechnet. Ebenso wurde der Allgemeinzustand der Tiere täglich verfolgt.

[3] = Ratten, p.o.; cited from earlier work
[4] = 100 ppm of each active in feed, 14 days

| Compound | Gesamtzuwachs x̄ (kg) [1] | Endgewicht x̄ (kg) [1] | Tageszuwachs [1] [g] | Zuwachsindex (%) [1] | Schweine notgeschlachtet wegen unbefriedigenden Allgemeinzustands (Vibrio coli; at end of trial, group of 20 pigs, 100 ppm) | Zuwachsindex (%) [2] | Ausnutzungsindex (%), difference from control (in brackets) [2] | Ausnutzungsindex (%) [2] | Futtermittel-Ausnutzung, x̄ [2] | LD50 [3] [mg/kg] | Anzeichen blutiger Durchfälle (Vibrio coli; [4]) | Heilungsgrad (Vibrio coli; [4]) |
| --- | --- | --- | --- | --- | --- | --- | --- | --- | --- | --- | --- | --- |
| O=C(O)c1ccccc1C(=O)Nc1ccc(S(=O)(=O)Nc2nccs2)cc1 [Phthalazol] | 8,99 kg | 59,61 kg | 642 | 100,5% | 5 | – | – | – | – | – | – | – |
| CC[C@H]1OC(=O)C[C@@H](O)[C@H](C)[C@@H](O[C@@H]2O[C@H](C)[C@@H](O[C@H]3C[C@@](C)(O)[C@@H](O)[C@H](C)O3)[C@H](N(C)C)[C@H]2O)[C@@H](CC=O)C[C@@H](C)C(=O)/C=C/C(C)=C/[C@@H]1CO[C@@H]1O[C@H](C)[C@@H](O)[C@@H](OC)[C@H]1OC [Tylosin] | – | – | – | – | – | 125,9% | -7,8% | 92,2% | 1,90 | – | – | – |
| N#CCC(=O)NN=Cc1c[n+]([O-])c2ccccc2[n+]1[O-] [Cyadox, 2-Formylchinoxalin-1,4-dioxy-cyanacetyl-hydrazon] | 10,10 kg | 57,90 kg | 721 | 112,8% | – | 109,8% | -0,5% | 99,5% | 1,99 | 15000 | keine Anzeichen blutiger Durchfälle | 100 |
